According to patent US20230330134A1, “METHOD OF PROPHYLAXIS OF CORONAVIRUS AND/OR RESPIRATORY SYNCYTIAL VIRUS INFECTION” (Starpharma Pty Ltd., priority 2020, published 2023):
Where “and” joins values, the source holds several entries; their conditions need not be identical. Identical values can stand only once. Like-named read-outs stand apart in the source and are kept apart here.

How the values were obtained:
[1] = test system: SARS-CoV-2 hCoV-19/Australia/VIC01/2020; assay: microbe, parasite or virus in culture; type: cell-based
[2] = test system: SARS-CoV-2 (hCoV-19/Australia/VIC01/2020); type: cell-based; conditions: 0.345 mg/mL added 0 min to 6 h post-infection; Vero E6; MOI 1; all time points
[3] = target: SARS-CoV-2 spike RBD recombinant protein (Severe acute respiratory syndrome coronavirus 2, UniProt P0DTC2); type: cell-based; conditions: 1 mg/mL in PBS, 1 hour prior to challenge; confocal microscopy
[4] = test system: Human Respiratory Syncytial Virus; assay: Antiviral pre-treatment and post-treatment plaque tests (RSV); type: cell-based, Human respiratory syncytial virus (HRSV); conditions: Hep-2 cells
Protocol: The concentrations of the Test Product were prepared using approximately 1:3 dilutions from the starting concentration determined following the cytotoxicity test.
The host cell culture was washed with PBS, and 1.0 mL aliquots of test product dilutions added to the cells. Cells were then incubated for 1 hour ± 15 minutes for equilibration. After the incubation, 1.0 mL aliquots of virus was added to the wells and incubated for 1 hour ± 15 minutes for virus adsorption. Following incubation, the mixture was removed and replaced with TM. The plates were then incubated in a CO2 incubator. The plates were incubated until viral plaques in the virus control could be microscopically registered (approximately 5-10 days).
Fixed cells were stained using Crystal Violet stain. Unstained zones of cell lysis (viral plaques) were counted.
The concentrations of the test product were prepared using approximately 1:3 dilutions from the starting concentration determined following the cytotoxicity test.
The host cell culture was washed with PBS, and 1.0 mL aliquots of virus added to the wells and incubated for 1 hour ± 15 minutes for virus adsorption. After incubation, virus inoculum was removed and replaced with aliquots of the test product concentrations in TM. The plates were then incubated in a CO2 incubator. The plates were then incubated until viral plaques in the virus control can be microscopically registered (approximately 5-10 days).
For the cell culture control, intact cell culture monolayers were used as the control of cell viability. The GM was replaced by TM in the cell culture control wells. […] Fixed cells were stained using Crystal Violet stain. Unstained zones of cell lysis (viral plaques) were counted.
Assessment of antiviral properties: The antiviral properties EC50 and/or EC90 was determined using non-linear regression analysis, GraphPad Prism 5.0 software.

Hep-2 cells = assay: Product cytotoxicity (TC50), CCK-8 assay; type: cell-based
[5] = Hygroscopic assessment (European Pharmacopoeia 5.11); type: physicochemical
Protocol: A hygroscopic assessment was performed as described in European Pharmacopoeia 5.11. Results from the assay are interpreted as follows: deliquescent -sufficient water is absorbed to form a liquid; very hygroscopic - increase in mass is equal to or greater than 15%; hygroscopic - increase in mass is less than 15% and equal to or greater than 2%; slightly hygroscopic - increase in mass is less than 2% and equal to or greater than 0.2% and not hygroscopic - if increase in mass is less than 0.2%, then the compound is not hygroscopic.

Calu-3 cells = conditions: Day 4
[6] = test system: SARS-CoV-2 (hCoV-19/Australia/VIC01/2020); conditions: mixed with virus for 1 hour prior to infection of Vero E6 cells; n=1
Vero cells = conditions: no virus
[7] = test system: Coronavirus strain NL63 (ZeptoMetrix Corp. #0810228CF); conditions: final 28.76 mg/mL; for CPE in four replicates, Test: Vero

For astodrimer sodium [SPL7013], the EC50 ([1]; added 1 hour post-infection, Vero cells, MOI 0.05, CPE by MTT after 4 days) was 400 µg/mL, the EC50 ([1]; added 1 hour pre-infection, Vero cells, MOI 0.05, CPE by MTT after 4 days) was 420 µg/mL and the EC50 ([1]; pre- and post-infection assays, read-out: EC50) was 25 µM and 24 µM. The “infectious virus titer in supernatant (TCID50) at 8 hours post-infection” value [2] was “below the lower limit of detection”, the “binding of SARS-CoV-2 spike protein to cells expressing the hACE2 receptor” value [3] was “no detectable binding” and the “EC50, Best Fit Value” ([4]; Post Treatment) was 107 µg/mL. For the same substance, the “EC90, Best Fit Value” ([4]; Post Treatment) was 1159 µg/mL, the “EC50, Best Fit Value” ([4]; PreTreatment) was 45 µg/mL and the “EC90, Best Fit Value” ([4]; PreTreatment) was 180 µg/mL. The “TC50, Best Fit Value” (Hep-2 cells; Post Treatment) was 30900 µg/mL, the “TC50, Best Fit Value” (Hep-2 cells; PreTreatment) was 35640 µg/mL and the hygroscopicity class [5] was “very hygroscopic (increase in mass is equal to or greater than 15%)”. For the same substance, the increase in mass [5] was 21.97%, the CC50 (Calu-3 cells) was 21760 µg/mL and the EC50 [6] was 1.83 µM. The “TCID50 (log10), CTC (Cytotoxicity Control)” value (Vero cells) was 1.50 log10, the “CPE in four replicates, CTC (Cytotoxicity Control)” value (shortened to “CPE in four replicates, CTC”) (Vero cells; dilution (-Log10) -2) was 0000 and the “CPE in four replicates, CTC” value (Vero cells; dilution (-Log10) -3) was 0000. The “CPE in four replicates, CTC” value (Vero cells; dilution (-Log10) -4) was 0000, the “CPE in four replicates, Test” value ([7]; 60 seconds exposure, dilution (-Log10) -6) was 0000 and the “CPE in four replicates, Test” value ([7]; 60 seconds exposure, dilution (-Log10) -7) was 0000. For the same substance, the “Log10 Reduction” value ([7]; 60 seconds exposure) was 0.50 log10, the “TCID50 (log10), Test” value ([7]; 60 seconds exposure) was 5.25 log10 and the “Percent Reduction” value ([7]; 60 seconds exposure, listed as SPL7013 aqueous solution) was 68.38%. For the same substance, the “CPE in four replicates, Test” value ([7]; 60 minutes exposure, dilution (-Log10) -6) was 0000, the “CPE in four replicates, Test” value ([7]; 60 minutes exposure, dilution (-Log10) -7) was 0000 and the “Log10 Reduction” value ([7]; 60 minutes exposure) was 0.75 log10. The “Percent Reduction” value ([7]; 60 minutes exposure) was 82.22% and the “TCID50 (log10), Test” value ([7]; 60 minutes exposure) was 5.00 log10.
